# According to PMC3690263, “Trypanocidal Activity of Smallanthus sonchifolius: Identification of Active Sesquiterpene Lactones by Bioassay-Guided Fractionation” (Evidence-based Complementary and Alternative Medicine : eCAM, 2013):
# “And” between values parts separate entries of the source, which are not always exact repeats. Equal values may be shown once. “Also recorded” adds a separate entry of the source.
# What was measured:
# [1] = tested on: T. cruzi epimastigotes (RA strain); assay: [3H] thymidine uptake assay, growth inhibition of T. cruzi epimastigotes; format: cell-based; details: Trypanosoma cruzi, 72 h of incubation
# Description: T. cruzi epimastigotes (RA strain) were grown in liver infusion tryptose medium (LIT) supplemented with 10% fetal bovine serum (Natocor). Cultures were routinely maintained by weekly passages at 28°C. T. cruzi trypomastigotes were routinely maintained by infecting 21-day-old male CF1 mice. T. cruzi amastigotes were obtained by infecting J774 cells with bloodstream trypomastigotes.
# S. sonchifolius OE and fractions F 1A–F 5B were tested for trypanocidal activity against T. cruzi epimastigotes, at final concentrations of 10 μg/mL and 100 μg/mL, by a [^3H] thymidine uptake assay as previously described. Compounds 1, 2, and 3 were tested at final concentrations ranging from 0.01 μg/mL to 50 μg/mL. Stock solutions of the samples were prepared in ethanol : water (1 : 1). Epimastigotes in exponential growth phase were adjusted to 1.5 × 10^6 parasites/mL and seeded on 96-well plates in the presence of the different concentrations of OE, fractions, or compounds. Parasites were cultured in triplicate for 72 h. Control parasites were cultured in absence or presence of benznidazole (20 μM; Roche-Rio de Janeiro, Brazil). Percentage inhibition was calculated as 100 − {[(cpm of treated parasites)/(cpm of untreated parasites)] × 100}. The compound concentration at which the parasite growth was inhibited by 50% (inhibitory concentration 50, IC50) was determined after 72 h.
# T. cruzi epimastigotes = assay: Recovery of epimastigotes after 24 h treatment (residual effect), Neubauer chamber counting; format: cell-based, Trypanosoma cruzi; details: for reduction in the replication rate / amount of parasites after treatment: epimastigotes; for reduction in the replication rate: at 24 h after treatment; for amount of parasites after treatment: 24 h treatment
# Description: To determine whether the parasites could recover after treatment with the pure compounds, T. cruzi epimastigotes were incubated with compounds 1–3 (0.1, 1, and 10 μg/mL) for 24 h. Parasites were then centrifuged at 3000 rpm for 10 min, resuspended in fresh medium, and incubated for 2 additional days, counting the number of parasite in a Neubauer chamber on a daily basis.
# T. cruzi trypomastigotes = assay: Trypanocidal effect on bloodstream trypomastigotes, counting of remaining live parasites; format: cell-based, Trypanosoma cruzi; details: 24 h; for IC50: Trypanosoma cruzi
# Description: The trypanocidal effect of compounds 1, 2, and 3 was also tested on bloodstream trypomastigotes as previously described. Briefly, mouse blood containing trypomastigotes was adjusted to a concentration of 1.5 × 10^6 parasite/mL and seeded (150 μL/well) by duplicate into a 96-well microplate, in the presence of each compound (1 to 50 μg/mL, final concentration). Plates were incubated for 24 h, and the remaining live parasites were counted in a haemocytometer.
# T. cruzi amastigotes = assay: Intracellular amastigotes in J774 macrophages, β-galactosidase/CPRG assay; format: cell-based, Trypanosoma cruzi; details: for selectivity index (SI): CC50 Vero cells divided by IC50 T. cruzi amastigotes; for IC50: Trypanosoma cruzi, intracellular amastigotes in J774 macrophages, 48 h after addition
# Description: To evaluate the effect of compounds 1–3 on intracellular forms of T. cruzi, 96-well plates were seeded with J774 murine macrophages at 5 × 10^3 per well in 100 μL of culture medium and incubated for 2 h at 37°C in a 5% CO2 atmosphere. Cells were infected with transfected blood trypomastigotes expressing β-galactosidase at a parasite : cell ratio of 10 : 1. After 2 h of coculture, plates were washed twice with PBS to remove free parasites and compounds 1–3 were added at 0.1–50 μg/mL per well in 150 μL of fresh complete RPMI medium without phenol red (Gibco, Rockville, MD). Controls included infected nontreated cells (100% infection control) and uninfected cells (0% infection control). The assay was developed 48 h later by addition of chlorophenol red-β-d-galactopyranoside (100 μM CPRG) and 1% Nonidet P40. Plates were incubated for 4–6 h at 37°C. Wells with galactosidase activity turned the media from yellow to red, and this reaction was quantified at 590 nm in a microplate reader (Bio-Rad Laboratories, Hercules, CA). Percentage inhibition was calculated as 100 − {[(absorbance of treated infected cells)/(absorbance of untreated infected cells)] × 100} and the IC50 value calculated.
# The selectivity index (SI) of each compound was calculated as the CC50 obtained with Vero cells divided by the IC50 obtained against T. cruzi amastigotes.
# MTT cytotoxicity assay = format: cell-based; details: African green monkey, Vero cells
# Description: The cytotoxic effect of compounds 1, 2, and 3 on Vero cells was evaluated by using the MTT tetrazolium salt (3-(4,5-dimethylthiazol-2-yl)-2,5-diphenyltetrazolium bromide) (Sigma) colorimetric assay. Cells (5 × 10^4 cells/well) were seeded at a final volume of 150 μL in a flat-bottom 96-well microplate and cultured at 37°C in a 5% CO2 atmosphere in the absence or presence of increasing concentrations of the compounds (1–50 μg/mL). After 24 h, MTT was added at a final concentration of 1.5 mg/mL and plates were incubated for 2 h at 37°C. The purple formazan crystals were completely dissolved by adding 150 μL of ethanol, and the absorbance was detected at 570 nm in a microplate reader. Results were calculated as the ratio between optical density in the presence and absence of the compound multiplied by 100. The 50% cytotoxic concentration (CC50) was calculated for each compound. All experiments were made in duplicate.
# [2] = 10 μg/mL for 24 h, then 2 days in fresh medium
SMILES,IC50 [1],recovery of epimastigote replication after removal of compound (T. cruzi epimastigotes; [2]),reduction in the replication rate (T. cruzi epimastigotes; 1 μg/mL),amount of parasites after treatment (T. cruzi epimastigotes; 10 μg/mL),IC50 (T. cruzi trypomastigotes),selectivity index (SI) (T. cruzi amastigotes),IC50 (T. cruzi amastigotes),CC50 at 24 h (MTT cytotoxicity assay),"recovery of epimastigote replication after removal of compound (T. cruzi epimastigotes; 0.1 μg/mL for 24 h, then fresh medium)",reduction in the replication rate (T. cruzi epimastigotes; 10 μg/mL),activity against trypomastigotes (T. cruzi trypomastigotes; 1 to 50 μg/mL)
"C=C1C(=O)O[C@H]2[C@H]1[C@H](OC(=O)[C@@]1(C)O[C@H]1C)[C@@H](OC(C)=O)/C(C(=O)OC)=C\CC[C@@]1(C)O[C@H]21 [enhydrin, 4α,5β-epoxy-8β-(2′S,3′S)-epoxyangeloyloxy-9α-acetyloxy-1(10)E,11(13)-germacradien-12,6α-olide-14-oic-acid methyl ester]",840 nM and 0.39 µg/mL,not able to recover their replication rate; also recorded: no recuperation of the epimastigotes was observed; also recorded: not able to recover their initial replication rates,~50%,drastic reduction in the amount of parasites,33.4 µM and 15.5 µg/mL,9,5.17 µM and 2.4 µg/mL,46.5 µM and 21.6 µg/mL,,,
"C=C1C(=O)O[C@@H]2/C=C(\C)CC/C=C(/C(=O)OC)[C@H](OC(C)=O)[C@@H](OC(=O)/C(C)=C\C)[C@@H]12 [polymatin B, 8β-angeloyloxi-9α-acetyloxi-1(10)E,4E,11(13)-germacratrien-12,6α-olide-14-oic acid methyl ester]",4.9 µM and 2.12 µg/mL,,,,,16.3,9.02 µM and 3.9 µg/mL,147 µM and 63.7 µg/mL,recovered their replication rates at values similar to the control parasites,~50%,not active
"C=C1C(=O)O[C@@H]2/C=C(\C)CC/C=C(/C(=O)OC)[C@H](OC(C)=O)[C@@H](OC(=O)[C@]3(C)O[C@@H]3C)[C@@H]12 [uvedalin, 8β-(2′S,3′S)-epoxyangeloyloxy-9α-acetyloxy-1(10)E,4E,11(13)-germacratrien-12,6α-olide-14-oic acid methyl ester]",1.09 µM and 0.49 µg/mL,not able to recover their replication rate; also recorded: no recuperation of the epimastigotes was observed; also recorded: not able to recover their initial replication rates,~50%,drastic reduction in the amount of parasites,25 µM and 11.2 µg/mL,14,3.34 µM and 1.5 µg/mL,46.8 µM and 21 µg/mL,,,
